Experimental data from PMC6155299, “Synthesis and Evaluation of New Pyrazoline Derivatives as Potential Anticancer Agents in HepG-2 Cell Line” (Molecules : A Journal of Synthetic Chemistry and Natural …, 2017).
Like-named read-outs stand apart in the source and are kept apart here.

Experiments:
HepG-2 cells [1] = assay: MTT assay, cytotoxic effects on HepG-2 cells; format: cell-based, human; conditions: 48 h
Procedure: (§1) Primary hepatocytes were isolated from male SD rats weighing 250–300 g using a modified in situ collagenase perfusion method and then the cells were cultured in Dulbecco’s Modified Eagle’s Medium (DMEM) with 2 g/L bovine serum albumin (BSA) and 50 mg/L gentamicin. HepG-2 cells were incubated in RPMI 1640 medium supplemented with 10% fetal bovine serum (FBS) and 1% penicillin–streptomycin liquid. Cells were incubated at 37 °C in a humidified atmosphere of 95% air and 5% CO2. Stock solutions of compounds and cisplatin were prepared in dimethyl sulfoxide (DMSO), then added to fresh culture medium to obtain final concentrations.
Next, compounds b14 and b18 were prepared in five different concentrations (20 µM, 40 µM, 60 µM, 80 µM, 100 µM), and compounds b15, b16, and b17, along with cisplatin, were prepared in seven different concentrations (2.5 µM, 5 µM, 7.5 µM, 10 µM, 20 µM, 40 µM, 60 µM). A suspension of growing cells (50,000/mL) was prepared, and 100 µL/well dispensed into 96-well plates, yielding a density of 5000 cells/well. The cells were incubated for 24 h before adding the pyrazoline derivatives. The optimal cell number for cytotoxicity assays was determined in preliminary experiments. At the end of the incubation period, the medium was removed and 100 µL of different concentrations of pyrazoline derivatives were added to wells for 24 h and 48 h. Following the exposure period, 20 µL of MTT (5 mg/mL) were added to cells and incubated for a further 4 h at 37 °C. The medium was removed and the formazan crystals were solubilized by adding 150 µL DMSO to each well. After 10 min of shaking, the absorbance was measured at 550 nm using a FilterMax F5 Multi-Mode Microplate Reader (Energy Chemical, Shanghai, China). Cells were treated with each compound with four replicates per concentration, and each experiment was conducted at least three times. Dose–inhibition rate curves and IC50 values, defined as the drug concentrations which reduced absorbance to 50% of control values, were then generated.

primary hepatocytes = assay: MTS assay, cytotoxicity against primary hepatocytes; format: cell-based, rat; conditions: for IC50: Rattus norvegicus, Hepatocyte, 48 h; for cytotoxicity against primary hepatocytes (in words): compared with HepG-2
Procedure: as §1
The cytotoxicological activity of compounds b5, b9, and b14–18 were evaluated against primary hepatocytes using the MTS assay (Cell Titer 96® Aqueous Cell Proliferation Assay, Promega, Cat. No. G5421) as a fast and sensitive quantification of cell proliferation and viability. The concentrations of compounds were prepared in seven different concentrations (2.5 µM, 5 µM, 10 µM, 20 µM, 40 µM, 80 µM, 160 µM). Cells were seeded into 96-well plates at a density of 26,000 cells/well. The plates were incubated for 24 h prior to any treatment. At the end of this period, the medium was removed and 100 µL of different concentrations of pyrazoline derivatives were added to wells for 48 h. Following the exposure period, 20 μL of the combined MTS/PMS solution was added to cells and incubated for a further 2 h at 37 °C, then the absorbance was recorded at 490 nm using an ELISA Plate Reader (ELISA, Emeryville, CA, USA). The values of IC50, the effective concentration at which 50% of the primary hepatocytes were inhibited, were calculated to evaluate the cytotoxic activities.

HepG-2 cells [2] = assay: Cell cycle analysis by flow cytometry (PI); format: cell-based, human; conditions: 24 h
Procedure: Based on the results of the cytotoxicity assay, compound b17 was selected for further mechanistic study with HepG-2 cells. For flow cytometry analysis of DNA content, approximately 1.5 × 10^5 HepG-2 cells/well in exponential growth mode were plated in 6-well plates and allowed to adhere, then treated with different concentrations of compound b17 for 24 h. After incubation, the cells were collected, centrifuged, and fixed with ice-cold ethanol (70%). The cells were treated with RNase A and stained with PI. Samples were analyzed on a BD Accuri C6 flow cytometer (BD, New York, NY, USA). DNA histograms were analyzed using ModFit for Windows.

HepG-2 cells [3] = assay: Annexin-V assay (annexin V/PI flow cytometry); format: cell-based, human; conditions: 12 h
Procedure: Approximately 1.5 × 10^5 HepG-2 cells/well were plated in 6-well plates and allowed to adhere. After 24 h, the medium was replaced with fresh culture medium containing compound b17 at final concentrations of 0 µM, 0.9 µM, 2.7 µM, and 4.5 µM. Cells were harvested after 12 h. The cells were trypsinized, washed in phosphate-buffered saline (PBS), and centrifuged at 1000 rpm for 5 min. The cells were then resuspended in 200 µL of staining solution (containing 10 µL PI and 5 µL Annexin V–PE in binding buffer), mixed gently, and incubated for 15 min at 25 °C in the dark. The samples were later analyzed with a BD Accuri™ C6 flow cytometer.

[4] = Homo sapiens, HepG2, HepG-2 cell line, read-out: IC50 HepG-2
[5] = Homo sapiens, HepG2, HepG-2 cells, read-out: IC50 against HepG-2 cells

Structure (SMILES)	IC50 (HepG-2 cells [1]; [4]) [µM]	melting point [°C]	IC50 (primary hepatocytes) [µM]	also measured
N.N.[Cl][Pt][Cl] [Cisplatin, cisplatin, reference compound]				IC50 (HepG-2 cells [1]; HepG-2 cell line, read-out: IC50 HepG-2): 8.45 ± 1.05 µM
COc1cc(C2CC(c3ccccc3O)=NN2)cc(OC)c1O (centres unmarked) [b1, 4-[5-(2-Hydroxyphenyl)-3,4-dihydro-2H-pyrazol-3-yl]-2,6-dimethoxy-phenol]	> 50	140.3 to 140.7		
COc1cc(C2CC(c3ccc([N+](=O)[O-])cc3)=NN2)cc(OC)c1O (centres unmarked) [b2, 2,6-Dimethoxy-4-[5-(4-nitrophenyl)-3,4-dihydro-2H-pyrazol-3-yl]-phenol]	> 50	140.7 to 141.1		
COc1cc(C2CC(c3ccccc3O)=NN2)cc(Br)c1O (centres unmarked) [b3, 2-Bromo-4-[5-(2-hydroxyphenyl)-3,4-dihydro-2H-pyrazol-3-yl]-6-methoxy-phenol]	> 50	181.8 to 183.9		
COc1cc(C2CC(c3ccc([N+](=O)[O-])cc3)=NN2)cc(Br)c1O (centres unmarked) [b4, 2-Bromo-6-methoxy-4-[5-(4-nitrophenyl)-3,4-dihydro-2H-pyrazol-3-yl]-phenol]	> 50	208.6 to 208.9		
COc1cc(C2CC(c3ccccc3O)=NN2S(=O)(=O)c2ccccc2)cc(OC)c1O (centres unmarked) [b5, 4-[2-Benzenesulfonyl-5-(2-hydroxyphenyl)-3,4-dihydro-2H-pyrazol-3-yl]-2,6-dimethoxy-phenol]	28.8 ± 1.32	163.1 to 164.4	35.1 ± 2.21	IC50 (HepG-2 cells [1]; [5]): < 50 µM; cytotoxicity against primary hepatocytes (in words) (primary hepatocytes): lower cytotoxicological activity
COc1cc(C2CC(c3ccccc3O)=NN2S(=O)(=O)c2ccccc2[N+](=O)[O-])cc(OC)c1O (centres unmarked) [b6, 4-[5-(2-Hydroxyphenyl)-2-(2-nitro-benzenesulfonyl)-3,4-dihydro-2H-pyrazol-3-yl]-2,6-dimethoxy-phenol]	> 50	151.1 to 152.8		
COc1cc(C2CC(c3ccccc3O)=NN2S(=O)(=O)c2cccc([N+](=O)[O-])c2)cc(OC)c1O (centres unmarked) [b7, 4-[5-(2-Hydroxyphenyl)-2-(3-nitro-benzenesulfonyl)-3,4-dihydro-2H-pyrazol-3-yl]-2,6-dimethoxy-phenol]	> 50	131.9 to 133.5		
COc1cc(C2CC(c3ccccc3O)=NN2S(=O)(=O)c2ccc([N+](=O)[O-])cc2)cc(OC)c1O (centres unmarked) [b8, 4-[5-(2-Hydroxyphenyl)-2-(4-nitro-benzenesulfonyl)-3,4-dihydro-2H-pyrazol-3-yl]-2,6-dimethoxy-phenol]	> 50	195.5 to 197		
COc1cc(C2CC(c3ccccc3O)=NN2S(=O)(=O)c2ccc(C)cc2)cc(OC)c1O (centres unmarked) [b9, 4-[5-(2-Hydroxyphenyl)-2-(toluene-4-sulfonyl)-3,4-dihydro-2H-pyrazol-3-yl]-2,6-dimethoxy-phenol]	12 ± 1.83	194.6 to 194.7	29.7 ± 2.43	IC50 (HepG-2 cells [1]; [5]): < 50 µM; cytotoxicity against primary hepatocytes (in words) (primary hepatocytes): lower cytotoxicological activity
COc1cc(C2CC(c3ccccc3O)=NN2C(=O)c2ccccc2[N+](=O)[O-])cc(OC)c1O (centres unmarked) [b10, [5-(4-Hydroxy-3,5-dimethoxyphenyl)-3-(2-hydroxyphenyl)-4,5-dihydro-pyrazol-1-yl]-(2-nitrophenyl)-methanone]	> 50	194.6 to 194.7		
COc1cc(C2CC(c3ccccc3O)=NN2C(=O)c2cccc([N+](=O)[O-])c2)cc(OC)c1O (centres unmarked) [b11, [5-(4-Hydroxy-3,5-dimethoxyphenyl)-3-(2-hydroxyphenyl)-4,5-dihydro-pyrazol-1-yl]-(3-nitrophenyl)-methanone]	> 50	207.7 to 209.3		
COc1cc(C2CC(c3ccccc3O)=NN2C(=O)c2ccc([N+](=O)[O-])cc2)cc(OC)c1O (centres unmarked) [b12, [5-(4-Hydroxy-3,5-dimethoxyphenyl)-3-(2-hydroxyphenyl)-4,5-dihydro-pyrazol-1-yl]-(4-nitrophenyl)-methanone]	> 50	250.1 to 251.2		
COc1cc(C2CC(c3ccccc3O)=NN2C(=O)c2cc([N+](=O)[O-])cc([N+](=O)[O-])c2)cc(OC)c1O (centres unmarked) [b13, (3,5-Dinitrophenyl)-[5-(4-hydroxy-3,5-dimethoxyphenyl)-3-(2-hydroxyphenyl)-4,5-dihydro-pyrazol-1-yl]-methanone]	> 50	240.4 to 240.9		
COc1cc(C2CC(c3ccccc3O)=NN2C(=O)c2ccc3ccccc3c2)cc(OC)c1O (centres unmarked) [b14, [5-(4-Hydroxy-3,5-dimethoxyphenyl)-3-(2-hydroxyphenyl)-4,5-dihydro-pyrazol-1-yl]-naphthalen-2-yl-methanone]	18 ± 1.37	185.5 to 186.5	22.7 ± 1.21	
COc1cc(C2CC(c3ccccc3O)=NN2C(=O)c2cccs2)cc(OC)c1O (centres unmarked) [b15, [5-(4-Hydroxy-3,5-dimethoxyphenyl)-3-(2-hydroxyphenyl)-4,5-dihydro-pyrazol-1-yl]-thiophen-2-yl-methanone]	4.51 ± 1.49	196.1 to 197.2	19.24 ± 0.08	
COc1cc(C2CC(c3ccccc3O)=NN2C(=O)c2ccco2)cc(OC)c1O (centres unmarked) [b16, Furan-2-yl-[5-(4-hydroxy-3,5-dimethoxyphenyl)-3-(2-hydroxyphenyl)-4,5-dihydro-pyrazol-1-yl]-methanone]	4.61 ± 1.27	201.1 to 203.7	20.7 ± 1.72	
COc1cc(C2CC(c3ccccc3O)=NN2C(=O)c2cc3ccccc3s2)cc(OC)c1O (centres unmarked) [b17, Benzo[b]thiophen-2-yl-[5-(4-hydroxy-3,5-dimethoxyphenyl)-3-(2-hydroxyphenyl)-4,5-dihydro-pyrazol-1-yl]-methanone]	3.57 ± 1.39	169.2 to 170.1	33.5 ± 2.33	cells in G1 phase (Dip G1) (HepG-2 cells [2]; HepG-2, 0.9 µM): 56.88%; cells in G2/M phase (Dip G2) (HepG-2 cells [2]; HepG-2, 0.9 µM): 16.90%; cells in S phase (Dip S) (HepG-2 cells [2]; HepG-2, 0.9 µM): 26.22%; cells in G1 phase (Dip G1) (HepG-2 cells [2]; HepG-2, 2.7 µM): 33.02%; cells in G2/M phase (Dip G2) (HepG-2 cells [2]; HepG-2, 2.7 µM): 41.50%; cells in S phase (Dip S) (HepG-2 cells [2]; HepG-2, 2.7 µM): 25.48%; cells in G1 phase (Dip G1) (HepG-2 cells [2]; HepG-2, 4.5 µM): 3.11%; cells in S phase (Dip S) (HepG-2 cells [2]; HepG-2, 4.5 µM): 13.89%; percentage of cell apoptosis (HepG-2 cells [3]; HepG-2, 0.9 µM): 7.6%; percentage of cell apoptosis (HepG-2 cells [3]; HepG-2, 2.7 µM): 8.7%; percentage of cell apoptosis (HepG-2 cells [3]; HepG-2, 4.5 µM): 10.2%; cytotoxicity against primary hepatocytes (in words) (primary hepatocytes): low cytotoxicity
COc1cc(C2CC(c3ccccc3O)=NN2c2ccccc2)cc(OC)c1O (centres unmarked) [b18, 4-[5-(2-Hydroxyphenyl)-2-phenyl-3,4-dihydro-2H-pyrazol-3-yl]-2,6-dimethoxy-phenol]	28.5 ± 1.34	169.7 to 170.8	50.7 ± 3.21	
COc1cc(C2CC(c3ccc(C)cc3)=NN2c2ccccc2)cc(OC)c1OC (centres unmarked) [b19, 1-Phenyl-3-p-tolyl-5-(3,4,5-trimethoxyphenyl)-4,5-dihydro-1H-pyrazole]	> 50	137.9 to 140.3		
